# Measured values: patent US20250304623A1, “PEPTIDES FOR INTRACELLULAR DELIVERY” (UNIVERSIDADE DE SANTIAGO DE COMPOSTELA, priority 2022, published 2025)
# *: point of attachment. NHNH2 = NN*
# Tests used:
# Assay type in all cases: cell-based
# HCT116 cells = assay: RLuc pDNA delivery, robotic library screening, HCT116
# [1] = tested on: ARPE19 cells expressing EGFP; assay: Cas9-RNP delivery against EGFP (gene editing, plate reader), ARPE19
# Experimental: (§1) To generate an EGFP expressing HeLa cell line, HeLa cells were transfected with EGFP pDNA (pEGFP-C1, Clontech) and stable transfectants were selected with 400 μg/mL of G-418 (Millipore). Green clones were selected by epifluorescence microscopy and tested for EGFP expression stability through several passages. […] All other EGFP-expressing cell lines were obtained in a similar way from parent non-EGFP-expressing cell lines.
# Cells expressing EGFP were seeded in a 96 well plate the day before the experiment at a concentration of 50,000 cell/mL (100 μL/w) in DMEM+10% FBS+1% Gln-Abt. For robotic library screening, the delivery of Cas9-RNP against EGFP (RNP designed to knock-out the gene encoding for the enhanced green fluorescent protein (EGFP)) was performed. For RNP assembly, 9.2 μL of crRNA and 9.2 μL of tracrRNA were mixed in 211.6 μL of Nuclease-Free Duplex Buffer (IDT), incubated for 5 min at 95° C. and slowly cooled at rt (see I. Lostalé-Seijo, et al. Peptide/Cas9 nanostructures for ribonucleoprotein cell membrane transport and gene edition, Chem. Sci., 2017). Cas9 protein was dissolved in DMEM at a final concentration of 4 μM and equal volumes of the RNA complex and Cas9 were mixed and incubated for 5 min at rt. 75 μL of the corresponding amphiphile concentrations were added to 5 μL of RNP at 2 μM. The mixture was shaken for 30 min at room temperature before the addition to the cells. The cell medium was aspirated, and cells were washed twice with PBS. Cells were covered with 30 μL of DMEM and 20 μL of the RNP/amphiphile complexes were added to the cells (final peptide concentrations=2.5, 5 and 10 μM; final Cas9-RNP concentration=50 nM) and incubated for 4 h. After the incubation, the medium was replaced by 100 μL of fresh DMEM supplemented with 10% FBS. The total EGFP fluorescence was quantified after 72 h in a plate reader (FIG. 2, Table 1 (right) and Table 6). All experiments were done in triplicate. […]
# (§2) Tables 26-31 show the mean (triplicates) percentage of gene editing, accounted by GFP fluorescence intensity decrease (% of reduction), measured after the transfection of Cas9-RNP by different amphiphiles at different concentrations in a variety of cell lines. Background values, accounted by untreated control cells, were subtracted for processing.
# [2] = tested on: ARPE19 cells expressing EGFP; assay: EGFP-targeting siRNA delivery (GFP silencing vs siMOCK), ARPE19
# Experimental: as §1
# Cells expressing EGFP were seeded in a 96 well plate the day before the experiment at a concentration of 50,000 cell/mL (100 μL/w) in DMEM+10% FBS+1% Gln-Abt. For robotic library screening, the delivery of an EGFP-targeting siRNA (EGFP: enhanced green fluorescent protein, Ambion® Silencer® GFP Positive Control siRNA (siGFP) (AM4626)) in six different cell lines expressing EGFP was performed. […] The mixture was shaken for 30 min at room temperature (rt) before the addition to the cells. The cell medium was aspirated, and cells were washed twice with PBS. Finally, 50 μL of the solution of siRNA/amphiphile complexes were added to the cells and incubated for 4 h. After transfection, the medium was replaced by 100 μL of fresh DMEM supplemented with 10% FBS. The fluorescence knockdown was quantified after 72 h in a plate reader, by comparison with cells transfected with a non-targeting siRNA control (siMOCK, Silencer™ Negative Control No. 1 siRNA (siMOCK) (AM4611)). EGFP knockdown was compared with Lipofectamine® RNAiMAX silencing efficiency (30-60% depending on cell line, defined with a numeric value in the below tables). All experiments were done in triplicate.
# Tables 1-7: RLuc (pDNA) or EGFP (mRNA) expression levels were normalized to Lipofectamine reagents (value=1) and expressed as fold-times signal increase. In the case of siRNA, the siRNA treated cells fluorescence was compared with siMOCK control fluorescence, while Cas9-RNP mediated knockout was measured against the fluorescence of untreated cells. In both siRNA and Cas9-RNP, values are expressed as % fluorescence reduction. Amphiphile concentration was 5 μM in all cases. All experiments were performed in triplicate.
# as §2, with “20-25” for “26-31”, “GFP-silencing,” for “gene editing,”, “by” for “by GFP”, “relative to a non-targeting siRNA (siMOCK) control,” for “(% of reduction),”, “siRNA” for “Cas9-RNP”
substance,measurement,setting,value
"Ac-RRLK*RLLRRLK*RLK*RRL-NH2 (Ac-RRLK(NHNH2)RLLRRLK(NHNH2)RLK(NHNH2)RRL-NH2; not fully specified; printed as Ac-RRLK*RLLRRLK*RLK*RRL-NH2; also: K*4,K*11,K*14: native or modified lysine (ε-amide to a linker)) [Peptide 17.3]",mean luminescent intensity (RLuc pDNA),"HCT116 cells; Dodecanal, 10 μM",1102 RLU
same,mean luminescent intensity (RLuc pDNA),"HCT116 cells; Myristoleyl, 5 μM",7561 RLU
same,mean luminescent intensity (RLuc pDNA),"HCT116 cells; Myristoleyl, 10 μM",−331 RLU
same,mean luminescent intensity (RLuc pDNA),"HCT116 cells; Oleyl, 10 μM",1799 RLU
same,mean luminescent intensity (RLuc pDNA),"HCT116 cells; Oleyl, 15 μM",1957 RLU
same,mean luminescent intensity (RLuc pDNA),"HCT116 cells; Palmitoleyl, 5 μM",14037 RLU
same,mean luminescent intensity (RLuc pDNA),"HCT116 cells; Palmitoleyl, 10 μM",5954 RLU
same,mean luminescent intensity (RLuc pDNA),"HCT116 cells; Palmitoleyl, 15 μM",892 RLU
same,mean luminescent intensity (RLuc pDNA),"HCT116 cells; Petroselinyl, 5 μM",46486 RLU
same,mean luminescent intensity (RLuc pDNA),"HCT116 cells; Petroselinyl, 10 μM",11022 RLU
same,mean luminescent intensity (RLuc pDNA),"HCT116 cells; Petroselinyl, 15 μM",1651 RLU
same,"percentage of gene editing, GFP fluorescence intensity decrease (% of reduction)","[1]; Myristoleyl, 10 μM",44%
same,"percentage of gene editing, GFP fluorescence intensity decrease (% of reduction)","[1]; Oleyl, 10 μM",45%
same,"percentage of gene editing, GFP fluorescence intensity decrease (% of reduction)","[1]; Oleyl, 15 μM",−9%
same,"percentage of gene editing, GFP fluorescence intensity decrease (% of reduction)","[1]; Palmitoleyl, 5 μM",12%
same,"percentage of gene editing, GFP fluorescence intensity decrease (% of reduction)","[1]; Palmitoleyl, 10 μM",60%
same,"percentage of gene editing, GFP fluorescence intensity decrease (% of reduction)","[1]; Palmitoleyl, 15 μM",31%
same,"percentage of gene editing, GFP fluorescence intensity decrease (% of reduction)","[1]; Petroselinyl, 10 μM",26%
same,"percentage of gene editing, GFP fluorescence intensity decrease (% of reduction)","[1]; Petroselinyl, 15 μM",27%
same,percentage of GFP-silencing relative to siMOCK,"[2]; Dodecanal, 5 μM",29%
same,percentage of GFP-silencing relative to siMOCK,"[2]; Dodecanal, 10 μM",14%
same,percentage of GFP-silencing relative to siMOCK,"[2]; Dodecanal, 15 μM",22%
same,percentage of GFP-silencing relative to siMOCK,"[2]; Myristoleyl, 5 μM",43%
same,percentage of GFP-silencing relative to siMOCK,"[2]; Myristoleyl, 15 μM",−5%
same,percentage of GFP-silencing relative to siMOCK,"[2]; Oleyl, 10 μM",22%
same,percentage of GFP-silencing relative to siMOCK,"[2]; Palmitoleyl, 5 μM",36%
same,percentage of GFP-silencing relative to siMOCK,"[2]; Palmitoleyl, 10 μM",24%
same,percentage of GFP-silencing relative to siMOCK,"[2]; Palmitoleyl, 15 μM",−4%
same,percentage of GFP-silencing relative to siMOCK,"[2]; Petroselinyl, 5 μM",36%
same,percentage of GFP-silencing relative to siMOCK,"[2]; Petroselinyl, 10 μM",20%
